Data from patent US7285618B1, “Polypeptides having neutrophil stimulating activity” (Japan Tobacco Inc., priority 2000, dated 2007).
Read-outs that look alike come from different tables or passages of the source. One block for each compound: values may come before it. Where a SMILES comes first, the peptide text is derived from it. Where no end group is shown, it is not given here. The star is where a group is joined. For = O=C*

What was measured:
[1] = tested on: differentiated HL60 cells; type: cell-based, human; settings: for activity of promoting β-HA secretion / activity for β-HA secretion compared with COSP-1 and fCyt b (1-15): differentiated HL60 cells; for activity of promoting β-HA secretion: Example 12; for activity for β-HA secretion compared with COSP-1 and fCyt b (1-15): human homologues; for β-HA secretion from differentiated HL60 cells (%/total): total = β-HA released with 0.05% Triton X-100
Experimental: a. Cultivation of HL60 Cells and Induction to the Differentiated Neutrophil-Like Cells For cultivation, heat-inactivated FCS (final concentration; 10%), streptomycin (final concentration; 100 mg/l), penicillin G (final concentration of 10^5 units/l) and RPMI-1640 culture solution containing 10 mM Hepes (pH 7.4) were used. Cells were cultivated at a cell density of 2×10^5-1.5×10^6 cells/ml in a plastic flask (80 cm^2, 260 ml, Nunc) at 37° C. under stationary conditions with a 5% of CO2 concentration and a 100% of humidity. […] c. […] Measuring β-HA Enzyme Activity The amount of β-HA secreted into the reaction supernatant was determined by measuring the absorbance at 415 nm of p-nitrophenol that was generated by an enzymatic reaction involving p-nitrophenyl N-acetyl-β-D-glucosaminide as a substrate. To be specific, 90 μl of the reaction supernatant was transferred to a 96-well Immuno plate (Nunc) and 60 μl of a substrate solution (10 mM p-nitrophenyl N-acetyl-β-D-glucosaminide/40 mM citrate, 70 mM Na2HPO4, pH 4.5) was added to initiate an enzymatic reaction. Following a 1-hr reaction at 37° C., 100 μl of a reaction quencher (400 mM glycine, pH 10.7) was added to stop the reaction and the absorbance at 415 nm was measured. As a control, cells were treated with Triton X-100 at a final concentration of 0.05% and the amount of β-HA in the supernatant was measured. As another control, the amount of β-HA secreted from cells upon stimulation with fMLP at a final concentration of 10 μM was measured.

[2] = tested on: undifferentiated HL60 cells; assay: Migration promoting activity (Chemotaxis Cells), undifferentiated HL60 cells; type: cell-based, human
Experimental: (§1) The migration promoting activity of each of the polypeptides of interest was measured using Chemotaxis Cells (Kurabo) as follows: The differentiated HL60 cells or undifferentiated HL60 cells were washed three times with ice-cooled HBHS and a cell suspension was prepared at a cell density of 4×10^6 cells/ml. The cell suspension was incubated at 37° C. for 10 minutes; thereafter, 500 μl of the cell suspension was transferred to Chemotaxis Cells (2×10^6 cells/Cell), which were put on a micro-well plate filled with pre-heated (37° C.) HBHS containing 1 ml of polypeptide and incubation was performed at 37° C. for 1 hour. Then, the Chemotaxis Cells were removed from the plate and the number of cells that had migrated in each well was counted.
(§2) Migration promoting activity was expressed by a chemotaxis index, or the number of cells that migrated upon stimulation was divided by the number of cells migrated without stimuli.
The activity of the human homologues of COSP-1 and fCyt b (1-15) for promoting β-HA secretion and migration promoting activities were measured following the methods described in Examples 4 and 5, respectively. […]

[3] = tested on: undifferentiated HL60 cells; assay: β-HA secretion from undifferentiated HL60 cells (Example 12); type: cell-based, human; settings: data not shown
Experimental: (§3) The activity of the human homologues of COSP-1 and fCyt b (1-15) for promoting β-HA secretion and migration promoting activities were measured following the methods described in Examples 4 and 5, respectively. The activity for β-HA secretion was expressed by the percentage for the maximum amount of secretion upon stimulation with 10 μM of fMLP, whereas the activity for migration was expressed by a chemotaxis index, i.e., the ratio of the number of stimulated migrating cells to that of unstimulated migrating cells.

[4] = tested on: differentiated HL60 cells; assay: Migration promoting activity (Chemotaxis Cells), differentiated HL60 cells; type: cell-based, human; settings: for activity for migration at the concentrations where β-HA secretion was observed / concentrations of migration activity relative to the concentration for β-HA secretion: Example 12
Experimental: as §1, §2, §3

[5] = tested on: differentiated HL60 cells; assay: Intracellular Ca2+ concentration (fura-2), differentiated HL60 cells; type: cell-based, human; settings: differentiated HL60 cells (+)
Experimental: (§4) The differentiated HL60 cells or undifferentiated HL60 cells were washed twice with a Hepes-Na solution (140 mM NaCl, 4 mM KCl, 1 mM NaH2PO4, 1 mM MgCl2, 1.25 mM CaCl2, 5 mM Hepes, 11 mM glucose, 0.2% BSA, pH 7.4). Then, Ca^2+ sensitive fluorescence reagent, fura-2/AM, was added to the cell suspension (4 ml: final concentration, 4 μM). The reaction mixture was then shaken gently at room temperature for 60 minutes, shielded from light in order to incorporate fura-2 into the HL60 cells. Subsequently, the cells were washed twice with a Hepes-Na solution and a cell suspension was prepared at a final cell density of 1.0×10^6 cells/ml. One milliliter of the cell suspension was put into reaction cuvettes and stimulated with various samples under stirring at 30° C. Ratios of fluorescence intensity at 500 nm (F) for an excitation wavelength at 340 nm to that at 380 nm were measured with a fluorimeter (CAF-100, Japan Spectroscopic Co., Ltd.) and [Ca^2+]i was calculated following the formula: [Ca^2+]i(nM)=K×{(F−Fmin)/(Fmax−F)}×A/B, wherein
(§5) Fmax: a ratio of fluorescence intensity at 500 nm for an excitation wavelength at 340 nm to that at 380 nm after all cells were solubilized with 0.1% Triton X-100;
(§6) Fmin: a ratio of fluorescence intensity at 500-nm for an excitation wavelength at 340 nm to that at 380 nm after the whole calcium was chelated with 4 mM EGTA;
(§7) A: fluorescence intensity at 500-nm for an excitation wavelength at 380 nm, when all the calcium was chelated with EGTA;
(§8) B: fluorescence intensity at 500-nm for an excitation wavelength at 380 nm, when all cells were solubilized with Triton X-100;
(§9) K: 224 (nM) (the dissociation constant of fura-2).

[6] = tested on: undifferentiated HL60 cells; assay: Intracellular Ca2+ concentration (fura-2), undifferentiated HL60 cells; type: cell-based, human
Experimental: as §4, §5, §6, §7, §8, §9

[7] = tested on: differentiated HL60 cells; assay: LDH leakage from HL60 cells; settings: differentiated HL60 cells, Example 4
Experimental: (§10) The differentiated HL60 cells and human leukocyte cells were washed three times with ice-cooled 0.1% BSA containing Hepes buffered Hank's solution (HBHS; 10 mM Hepes, 136.9 mM NaCl, 5.4 mM KCl, 1.2 mM CaCl2, 0.44 mM KH2PO4, 0.49 mM MgCl2, 0.41 mM MgSO4, 0.34 mM Na2HPO4, 5.5 mM glucose, 4.2 mM NaHCO3, pH 7.4). A cell suspension was prepared for each cell type at 5.5×10^6 cells/ml. Cytochalasin B and DNase I were then added to each cell suspension at a final concentration of 5 μg/ml. Ninety μl of each cell suspension was then transferred to an ice-cooled tube (5.0×10^5 cells/tube) and incubated at 37° C. for 10 minute. To each tube, either one of the fractions of polypeptide (or extract) in solution (10 μl) was added and incubated at 37° C. for 10 minutes to stimulate the cells. Immediately after the treatment, 200 μl of ice-cooled reaction quenching buffer (25 mM Tris, 123 mM NaCl, 2.7 mM KCl, pH 7.4) was added to the cell suspensions to stop the stimulation. Thereafter, the tubes were spun down at 4° C. for 60 seconds to precipitate the cell pellets and the β-HA activity and the lactate dehydrogenase (LDH) activity in the supernatant were measured.
(§11) The amount of LDH secreted into the reaction mixture was determined by measuring the absorbance (340 nm) of NADH generated by reduction of that NAD involves dehydrogenation of lactate. Reaction was initiated by adding a 400 μl of a substrate-buffer solution (125 mM 2-amino-2-methyl-1-propanol, 125 mM lithium lactate, 6.25 mM NAD, pH 9.5) to a 100 μl of the reaction supernatant. Following a 1-hr incubation at 37° C., the mixture was quenched in ice water to stop the reaction and the absorbance at 340 nm was measured.
(§12) The LDH enzyme activity secreted in the reaction mixture was expressed as the percentage of the total enzyme activity in cells (%/total) which was the enzyme activity of LDH released upon disruption of the cells with 0.05% Triton X-100.

[8] = tested on: differentiated HL60 cells
Experimental: as §10, §11, §12

Compound: fMet-Thr-Pro-Met-Arg-Lys-Ile-Asn-Pro-Leu-Met-Lys-Leu-Ile-Asn (For-MTPMRKINPLMKLIN; listed as Homo sapiens) [Human fCyt b (1-15)]
migration promoting activity [2]: not observed
activity of promoting β-HA secretion [3]: not observed
activity of promoting β-HA secretion [1]: showed the activity
activity for β-HA secretion compared with COSP-1 and fCyt b (1-15) [1]: comparable
β-HA secretion from differentiated HL60 cells (%/total) [1]: 65.9 %/total
migration promoting (attracting) activity [4]: showed the activity
activity for migration at the concentrations where β-HA secretion was observed [4]: desensitized
concentrations of migration activity relative to the concentration for β-HA secretion [4]: observed at concentrations lower

Compound: Nc1ncnc2c1ncn2[C@@H]1O[C@H](COP(=O)(O)OP(=O)(O)OP(=O)(O)O)[C@@H](O)[C@H]1O [ATP]
intracellular Ca2+ concentration [5]: increased
intracellular Ca2+ concentration [6]: increased

Compound: VTFLLPAGWILSHLETYRRPE [Human COSP-1]
migration promoting activity [2]: not observed
activity of promoting β-HA secretion [3]: not observed
activity of promoting β-HA secretion [1]: showed the activity
activity for β-HA secretion compared with COSP-1 and fCyt b (1-15) [1]: comparable
β-HA secretion from differentiated HL60 cells (%/total) [1]: 53.5 %/total
migration promoting (attracting) activity [4]: showed the activity
activity for migration at the concentrations where β-HA secretion was observed [4]: desensitized
concentrations of migration activity relative to the concentration for β-HA secretion [4]: observed at concentrations lower

Second part, the compound after the results:

EC50 [1]: 0.038 ± 0.0034 µM
Compound: CC[C@H](C)[C@H](NC(=O)[C@H](CC(N)=O)NC(=O)[C@@H](NC(=O)[C@H](CCSC)NC=O)[C@@H](C)O)C(=O)N[C@@H](CCCNC(=N)N)C(=O)N[C@@H](CCCCN)C(=O)N[C@@H](CO)C(=O)N[C@@H](Cc1c[nH]cn1)C(=O)N1CCC[C@H]1C(=O)N[C@@H](CC(C)C)C(=O)N[C@@H](CCSC)C(=O)N[C@@H](CCCCN)C(=O)N[C@H](C(=O)N[C@H](C(=O)N[C@@H](CC(N)=O)C(=O)O)[C@@H](C)CC)[C@@H](C)CC [fCyt b (1-15), fMet-Thr-Asn-Ile-Arg-Lys-Ser-His-Pro-Leu-Met-Lys-Ile-Ile-Asn] (For-MTNIRKSHPLMKIIN-OH)

LDH leakage out of the cells [7]: no LDH was found to leak out
Compound: MTNIRKSHPLMKIIN [Cyt b (1-15)]

LDH leakage out of the cells [8]: no LDH was found to leak out
Compound: CC[C@H](C)[C@H](NC(=O)[C@H](CC(N)=O)NC(=O)[C@@H](NC(=O)[C@H](CCSC)NC=O)[C@@H](C)O)C(=O)N[C@@H](CCCNC(=N)N)C(=O)N[C@@H](CCCCN)C(=O)N[C@@H](CO)C(=O)N[C@@H](Cc1cnc[nH]1)C(=O)N1CCC[C@H]1C(=O)N[C@@H](CC(C)C)C(=O)N[C@@H](CCSC)C(=O)N[C@@H](CCCCN)C(=O)N[C@H](C(=O)N[C@H](C(=O)N[C@@H](CC(N)=O)C(=O)O)[C@@H](C)CC)[C@@H](C)CC [fCyt b (1-15), fMet-Thr-Asn-Ile-Arg-Lys-Ser-His-Pro-Leu-Met-Lys-Ile-Ile-Asn] (For-MTNIRKSHPLMKIIN-OH)
